The source of these data is US20090054392A1, “NAPHTHYLPYRIMIDINE, NAPHTHYLPYRAZINE AND NAPHTHYLPYRIDAZINE ANALOGS AND THEIR USE AS AGONISTS OF THE WNT-BETA-CATENIN CELLULAR MESSAGING SYSTEM” (Wyeth, priority 2007, published 2009).

The subject of this data set is Dkk1-LRP5-TCF-Luciferase. Briefly: Functional Dkk1-LRP5-TCF-Luciferase Assay in U2OS Cells. The following applies: for fold induction at 2 µM / fold induction at 20 µM / EC50: Homo sapiens, U2OS; for fold induction at 20 µM: read-out: C = TCF ACTIVITY/DMSO CONTROL Fold induction @ 20.0 uM, 20.0 uM compound; for A = MAX FOLD Induction/DMSO CONTROL: maximum fold induction over DMSO control.

Where [1] appears, read: read-out: B = TCF ACTIVITY/DMSO CONTROL Fold induction @ 2.0 uM, 2.0 uM compound.

SMILES strings stand for the structures. Read-outs that look alike come from different tables or passages of the source.

For the molecule `O=C([C@@H]1CCCN1c1nccc(-c2ccc3ccccc3c2)n1)N1CCCCC1` [4-(2-naphthyl)-2-[(2S)-2-(piperidin-1-ylcarbonyl)pyrrolidin-1-yl]pyrimidine], the fold induction at 2 µM under setting [1] was determined as 1.91.
As to `O=C([C@@H]1CCCN1c1nccc(-c2ccc3ccccc3c2)n1)N1CCCC1` [4-(2-naphthyl)-2-[(2S)-2-(pyrrolidin-1-ylcarbonyl)pyrrolidin-1-yl]pyrimidine], the fold induction at 20 µM was 1.07. The fold induction at 2 µM under setting [1] came out at 0.87.
In the same order, the values of `c1ccc2cc(-c3ccnc(N4CC[C@H](CN5CCCCC5)C4)n3)ccc2c1` [4-(2-naphthyl)-2-[(3R)-3-(piperidin-1-ylmethyl)pyrrolidin-1-yl]pyrimidine] are 1.34 and 1.21.
What is called EC50 is the concentration at which the effect is half-maximal. High values mean a need for much substance, low ones an effect from little substance. In the case of `c1ccc2cc(-c3ccnc(N4CC[C@H](CN5CCCC5)C4)n3)ccc2c1` [4-(2-naphthyl)-2-[(3R)-3-(pyrrolidin-1-ylmethyl)pyrrolidin-1-yl]pyrimidine], the EC50 is 7.67 µM, the fold induction at 20 µM amounted to 6.07 and the “A = MAX FOLD Induction/DMSO CONTROL” value is reported as 6.053 fold. In addition, under setting [1], the fold induction at 2 µM turned out to be 1.5.
As for `c1ccc2cc(-c3ccnc(N4CC[C@@H](N5CCNCC5)C4)n3)ccc2c1` [4-(2-naphthyl)-2-[(3R)-3-piperazin-1-ylpyrrolidin-1-yl]pyrimidine], the “A = MAX FOLD Induction/DMSO CONTROL” value was found to be 2.510 fold. Moreover, the fold induction at 2 µM under setting [1] was 3.44.
With `c1ccc2cc(-c3ccnc(N4CC[C@@H](N5CCCCC5)C4)n3)ccc2c1` [4-(2-naphthyl)-2-[(3R)-3-piperidin-1-ylpyrrolidin-1-yl]pyrimidine], the fold induction at 20 µM is 0.06. For the same molecule, under setting [1], the fold induction at 2 µM came to 1.29.
As for `c1ccc2cc(-c3ccnc(N4CC[C@@H](CN5CCCCC5)C4)n3)ccc2c1` [4-(2-naphthyl)-2-[(3S)-3-(piperidin-1-ylmethyl)pyrrolidin-1-yl]pyrimidine], the fold induction at 20 µM worked out at 1.06. Besides, the fold induction at 2 µM under setting [1] is 1.34.
`c1ccc2cc(-c3ccnc(N4CC[C@@H](CN5CCCC5)C4)n3)ccc2c1` [4-(2-naphthyl)-2-[(3S)-3-(pyrrolidin-1-ylmethyl)pyrrolidin-1-yl]pyrimidine]: the fold induction at 20 µM stood at 5.18 and the “A = MAX FOLD Induction/DMSO CONTROL” value worked out at 4.050 fold. The fold induction at 2 µM under setting [1] worked out at 1.9.
As for `c1ccc2cc(-c3ccnc(N4CC[C@H](N5CCNCC5)C4)n3)ccc2c1` [4-(2-naphthyl)-2-[(3S)-3-piperazin-1-ylpyrrolidin-1-yl]pyrimidine], the EC50 was determined as 1.1 µM and the “A = MAX FOLD Induction/DMSO CONTROL” value is 7.520 fold. In addition, the fold induction at 2 µM under setting [1] came to 6.16.
Take `c1ccc2cc(-c3ccnc(N4CC[C@H](N5CCCCC5)C4)n3)ccc2c1` [4-(2-naphthyl)-2-[(3S)-3-piperidin-1-ylpyrrolidin-1-yl]pyrimidine]: the fold induction at 2 µM under setting [1] turned out to be 1.65.
Turning to `c1ccc2cc(-c3ccnc(N4CCNCC4)n3)ccc2c1` [4-(2-naphthyl)-2-piperazin-1-ylpyrimidine], the “A = MAX FOLD Induction/DMSO CONTROL” value is given as 2.050 fold. Further, the fold induction at 2 µM (read-out: B = TCF ACTIVITY/DMSO CONTROL Fold induction @ 2.0 uM) stood at 2.64.
Consider `c1ccc2cc(-c3ccnc(N4CCCCC4)n3)ccc2c1` [4-(2-naphthyl)-2-piperidin-1-ylpyrimidine], for which the fold induction at 20 µM is 1.79. For the same molecule, the fold induction at 2 µM under setting [1] came out at 0.92.
As to `c1ccc2cc(-c3ccnc(N4CCCC4)n3)ccc2c1` [4-(2-naphthyl)-2-pyrrolidin-1-ylpyrimidine], the fold induction at 2 µM under setting [1] was 1.97.
Regarding `c1ccc(CCNc2nccc(-c3ccc4ccccc4c3)n2)cc1` [4-(2-naphthyl)-N-(2-phenylethyl)pyrimidin-2-amine], under setting [1], the fold induction at 2 µM was determined as 1.91.
For the molecule `c1cncc(CCNc2nccc(-c3ccc4ccccc4c3)n2)c1` [4-(2-naphthyl)-N-(2-pyridin-3-ylethyl)pyrimidin-2-amine], the fold induction at 20 µM was determined as 1.04. Moreover, the fold induction at 2 µM under setting [1] stood at 1.15.
Turning to `c1ccc2cc(-c3ccnc(NCCc4ccncc4)n3)ccc2c1` [4-(2-naphthyl)-N-(2-pyridin-4-ylethyl)pyrimidin-2-amine], the EC50 is 0.98 µM, the fold induction at 20 µM came out at 0.375 and the “A = MAX FOLD Induction/DMSO CONTROL” value is given as 2.765 fold. Also, the fold induction at 2 µM under setting [1] stood at 1.96.
As for `c1ccc2cc(-c3ccnc(NCC4CCNCC4)n3)ccc2c1` [4-(2-naphthyl)-N-(piperidin-4-ylmethyl)pyrimidin-2-amine], the fold induction at 20 µM is 1.36 and the “A = MAX FOLD Induction/DMSO CONTROL” value was found to be 6.120 fold. Moreover, the fold induction at 2 µM under setting [1] was 1.33.
With `c1ccc(CNc2nccc(-c3ccc4ccccc4c3)n2)nc1` [4-(2-naphthyl)-N-(pyridin-2-ylmethyl)pyrimidin-2-amine], the fold induction at 20 µM came to 1.55 and the “A = MAX FOLD Induction/DMSO CONTROL” value amounted to 2.690 fold. Further, the fold induction at 2 µM under setting [1] was 1.72.
For `c1cncc(CNc2nccc(-c3ccc4ccccc4c3)n2)c1` [4-(2-naphthyl)-N-(pyridin-3-ylmethyl)pyrimidin-2-amine], the EC50 came to 5.9 µM, the fold induction at 20 µM turned out to be 1.41 and the “A = MAX FOLD Induction/DMSO CONTROL” value is given as 1.960 fold. Besides, under setting [1], the fold induction at 2 µM stood at 1.55.
`c1ccc2cc(-c3ccnc(NCc4ccncc4)n3)ccc2c1` [4-(2-naphthyl)-N-(pyridin-4-ylmethyl)pyrimidin-2-amine]: the EC50 was found to be 2.42 µM, the fold induction at 20 µM came out at 1.7 and the “A = MAX FOLD Induction/DMSO CONTROL” value is given as 2.070 fold. For the same molecule, the fold induction at 2 µM under setting [1] was 1.41.
`O=C(N1CCCC1)N1CCC(Nc2nccc(-c3ccc4ccccc4c3)n2)CC1` [4-(2-naphthyl)-N-[1-(pyrrolidin-1-ylcarbonyl)piperidin-4-yl]pyrimidin-2-amine]: the fold induction at 20 µM was determined as 0.96. Also, the fold induction at 2 µM under setting [1] turned out to be 1.06.
Regarding `c1ccc2cc(-c3ccnc(N[C@@H]4CCNC4)n3)ccc2c1` [4-(2-naphthyl)-N-[(3R)-pyrrolidin-3-yl]pyrimidin-2-amine], the EC50 was found to be 9.23 µM, the fold induction at 20 µM worked out at 3.98 and the “A = MAX FOLD Induction/DMSO CONTROL” value amounted to 6.560 fold. The fold induction at 2 µM under setting [1] was 1.76.
Turning to `c1ccc2cc(-c3ccnc(NC[C@@H]4CCNC4)n3)ccc2c1` [4-(2-naphthyl)-N-[(3R)-pyrrolidin-3-ylmethyl]pyrimidin-2-amine], a half-maximal response (EC50) required 3.88 µM, the fold induction at 20 µM was 0.06 and the “A = MAX FOLD Induction/DMSO CONTROL” value is listed as 7.510 fold.
`c1ccc2cc(-c3ccnc(N[C@H]4CCNC4)n3)ccc2c1` [4-(2-naphthyl)-N-[(3S)-pyrrolidin-3-yl]pyrimidin-2-amine]: the fold induction at 20 µM was 0.89 and the “A = MAX FOLD Induction/DMSO CONTROL” value worked out at 1.360 fold. Also, the fold induction at 2 µM under setting [1] was determined as 2.84.
As for `c1ccc2cc(-c3ccnc(NC[C@H]4CCNC4)n3)ccc2c1` [4-(2-naphthyl)-N-[(3S)-pyrrolidin-3-ylmethyl]pyrimidin-2-amine], it took 3.74 µM to reach a half-maximal effect (EC50) and the “A = MAX FOLD Induction/DMSO CONTROL” value was found to be 6.810 fold.
On to `c1ccc2cc(-c3ccnc(NC4CCNCC4)n3)ccc2c1` [4-(2-naphthyl)-N-piperidin-4-ylpyrimidin-2-amine], for which the EC50 amounted to 4.12 µM, the fold induction at 20 µM was found to be 1.75 and the “A = MAX FOLD Induction/DMSO CONTROL” value worked out at 3.723 fold. Under setting [1], the fold induction at 2 µM was determined as 1.47.
For `CCCNc1nccc(-c2ccc3ccccc3c2)n1` [4-(2-naphthyl)-N-propylpyrimidin-2-amine], the fold induction at 2 µM under setting [1] was 1.28.
With `O=C(Cc1ccccc1)N1CCC(CNc2nccc(-c3ccc4ccccc4c3)n2)CC1` [4-(2-naphthyl)-N-{[1-(phenylacetyl)piperidin-4-yl]methyl}pyrimidin-2-amine], the fold induction at 20 µM turned out to be 1.87. For the same molecule, the fold induction at 2 µM under setting [1] came out at 1.03.
In the same order, the values of `O=C(N1CCCC1)N1CCC(CNc2nccc(-c3ccc4ccccc4c3)n2)CC1` [4-(2-naphthyl)-N-{[1-(pyrrolidin-1-ylcarbonyl)piperidin-4-yl]methyl}pyrimidin-2-amine] are 0.907 and 1.08.
As to `O=C(N1CC(CNc2nccc(-c3ccc4ccccc4c3)n2)C1)C(F)(F)F` [4-(2-naphthyl)-N-{[1-(trifluoroacetyl)azetidin-3-yl]methyl}pyrimidin-2-amine], the fold induction at 2 µM under setting [1] is 1.5.
`c1ccc2cc(-c3ccnc(N4CCN(CCN5CCOCC5)CC4)n3)ccc2c1` [4-(2-{4-[4-(2-naphthyl)pyrimidin-2-yl]piperazin-1-yl}ethyl)morpholine]: a half-maximal effect (EC50) was put at 4.6 µM, the fold induction at 20 µM stood at 3.49 and the “A = MAX FOLD Induction/DMSO CONTROL” value was found to be 2.400 fold. Moreover, the “C = TCF ACTIVITY/DMSO CONTROL Fold induction @ 20.0 uM” value (20.0 uM compound, 20 µM) worked out at 3.000 fold. In addition, the fold induction at 2 µM under setting [1] came to 1.53.
For `c1ccc2cc(-c3ccnc(N4CCN(CCCN5CCOCC5)CC4)n3)ccc2c1` [4-(3-{4-[4-(2-naphthyl)pyrimidin-2-yl]piperazin-1-yl}propyl)morpholine], the fold induction at 20 µM was found to be 0.01. For the same molecule, the fold induction at 2 µM under setting [1] was 1.29.
`NCC1(O)CCN(c2nccc(-c3ccc4ccccc4c3)n2)CC1` [4-(aminomethyl)-1-[4-(2-naphthyl)pyrimidin-2-yl]piperidin-4-ol]: the midpoint of the response, the EC50, lay at 1.18 µM and the “A = MAX FOLD Induction/DMSO CONTROL” value came out at 2.950 fold. The fold induction at 2 µM under setting [1] is 1.6.
For `c1ccc2cc(-c3ccnc(N4CCC(CN5CCOCC5)CC4)n3)ccc2c1` [4-({1-[4-(2-naphthyl)pyrimidin-2-yl]piperidin-4-yl}methyl)morpholine], the concentration giving a half-maximal response (EC50) came to 4.98 µM, the fold induction at 20 µM is 1.96 and the “A = MAX FOLD Induction/DMSO CONTROL” value was found to be 2.380 fold. The fold induction at 2 µM under setting [1] amounted to 0.76.
On to `O=C1CN(CC2CCN(c3nccc(-c4ccc5ccccc5c4)n3)CC2)CCN1` [4-({1-[4-(2-naphthyl)pyrimidin-2-yl]piperidin-4-yl}methyl)piperazin-2-one], for which the fold induction at 20 µM was found to be 1.49. Besides, under setting [1], the fold induction at 2 µM came to 1.16.
